Converted amounts (≈) assume the structure as drawn. “And” between values parts separate entries of the source, which are not always exact repeats. Equal entries are not always repeated. Where two headings read alike, the source gives them in different places. Values belong to the compound of their own block, whether it stands above or below them.
Experiments:
[1] = test system: MES-SA DX (Taxol Resistant) human uterine sarcoma tumor cell line; assay: Drug resistant cell line pair, cytotoxicity; format: cell-based
Description: MES-SA (Taxol Sensitive) and MES-SA DX (Taxol Resistant). This cell line expresses elevated mdr-1 mRNA and P-glycoprotein (an extrusion pump mechanism). Pretreatment with cyclosporin-A (CsA) blocks P-glycoprotein and reinstates activity in the resistant cell line for those compounds for which the resistance is due to elevated P-glycoprotein.

[2] = test system: HL-60/MX-2 (Mitoxantrone-Resistant) human acute promyelocytic leukemia cell line; assay: Drug resistant cell line pair, cytotoxicity; format: cell-based
Description: HL-60 (Mitoxantrone-Sensitive) and HL-60/MX-2 (Mitoxantrone-Resistant) This cell line is considered to have atypical drug resistance properties with altered topoisomerase II catalytic activity without overexpression of P-glycoprotein.

[3] = test system: HL-60 (Mitoxantrone-Sensitive) human acute promyelocytic leukemia cell line; assay: Drug resistant cell line pair, cytotoxicity; format: cell-based; conditions: Homo sapiens; HL-60 Sensitive
Description: 2) Human Acute Promyelocytic Leukemia Cell Line Pair: HL-60 (Mitoxantrone-Sensitive) and HL-60/MX-2 (Mitoxantrone-Resistant)
This cell line is considered to have atypical drug resistance properties with altered topoisomerase II catalytic activity without overexpression of P-glycoprotein.

Jurkat cells [4] = assay: Cytotoxicity in Jurkat cells; conditions: Homo sapiens, read-out: Cytotoxicity Potency IC50
Jurkat cells [5] = test system: Jurkat cells
[6] = test system: K-562, human chronic myelogenic leukemia cells; assay: Cell proliferation inhibiting effect, MTT (Example 5); format: cell-based; conditions: K562, K-562, 48-hours incubation
Description: (§1) K-562, human chronic myelogenic leukemia cells were cultured in […] culture medium (containing 10% bovine fetus serum) and A-431 human pudendal epithelial squamous cancer cells were cultured in DMEM culture medium, containing 10% bovine fetus serum. To these a continuous dilution series of the (+)-phenylahistin obtained in EXAMPLE 1 was added. After 48-hours incubation, a MTT reagent was added to measure growth.

[7] = test system: A-431 human pudendal epithelial squamous cancer cells; assay: as above; format: cell-based; conditions: A-431, 48-hours incubation
Description: as §1

[8] = test system: seven human cancer cell lines; assay: Antiproliferative activity, MTT assay, all lines of Table 7; format: cell-based
Description: (§2) In order to examine detailed biological activity, especially antitumor activity of both (+)- and (−)-phenylahistin, resolution of (+)- and (−)-phenylahistin using chiral HPLC was conducted. By repeating chiral separation twice or three times, each enantiomer with an optical purity over 99.8% was obtained, and each enantiomer was recrystallizes from ethanol-hexane mixture.
(§3) Antitumor activity of (+)- and (−)-phenylahistin was examined against seven human cancer cell lines including A431, WiDr, TE-671, Hela, MCF7, A-549 and K562 cells.

P388 cells [9] = assay: P388 proliferation, Alamar Blue assay; format: cell-based, murine; conditions: Mus musculus, P388
Description: For this example, the Alamar Blue™ assay was performed as follows. Exponentially growing P388 cells were seeded into 96-well tissue culture plates (5×10^3 cells/100 μl/well) and cultured in RPMI 1640 medium supplemented with 10% fetal bovine serum for 16 h. Compounds (DMSO solution) were then added to each well at various concentrations, and the cells were cultured for an additional 48 h. Living cells were counted using Alamar Blue™ (BioSource International, Camarillo, Calif.), according to the method of Ahmed, S. A. et al., J. Immunol. Methods, 170, 211 (1994).

[10] = test system: P388 murine leukemia cells; assay: Cytotoxic effects of the phenylahistin enantiomers (Example 8); format: cell-based; conditions: Mus musculus, (−) 92.2% e.e., (+) 97.8% e.e.
Description: The cytotoxic effects of the enantiomers of phenylahistin on P388 murine leukemia cells were examined. […] Judging from the content of (−)-phenylahistin in (+)-phenylahistin, (+)-phenylahistin was considered to have relatively low cytotoxicity to P388 cells.

Hela (ovary) = assay: Antiproliferative activity, MTT assay (Table 7); format: cell-based; conditions: Homo sapiens, optical purity over 99.8%
Description: as §2, §3

MCF7 (breast) = assay: Antiproliferative activity, MTT assay (Table 7); format: cell-based; conditions: Homo sapiens, optical purity over 99.8%
Description: as §2, §3

TE-671 (CNS) = assay: Antiproliferative activity, MTT assay (Table 7); format: cell-based; conditions: Homo sapiens, TE-671, TE-671 (CNS), optical purity over 99.8%
Description: as §2, §3

K562 (leukemia) = assay: Antiproliferative activity, MTT assay (Table 7); format: cell-based; conditions: Homo sapiens, optical purity over 99.8%
Description: as §2, §3

WiDr (colon) = assay: Antiproliferative activity, MTT assay (Table 7); format: cell-based; conditions: Homo sapiens, optical purity over 99.8%
Description: as §2, §3

A-431 (damal) = assay: Antiproliferative activity, MTT assay (Table 7); format: cell-based; conditions: Homo sapiens, optical purity over 99.8%
Description: as §2, §3

A549 (lung) = assay: Antiproliferative activity, MTT assay (Table 7); format: cell-based; conditions: Homo sapiens, optical purity over 99.8%
Description: as §2, §3

[11] = test system: Microtubule protein from bovine brain; assay: Microtubule protein polymerization assay (turbidity); format: biochemical
Description: Microtubule protein was prepared from bovine brain tissue by two cycles of assembly and disassembly according to the method of Tiwari, S. C. et al. Anal. Biochem, (1993), 215, 96-103. Tubulin was purified from microtubule protein by phosphocellulose chromatography see Algaier, J. et al. Biochim. Biophys. Acta, (1988), 954, 235-43, and tubulin purity was evaluated by polyacrylamide gel electrophoresis, as in Laemmli, U.K., Nature, (1970), […], 680-85. […] Protein concentrations were determined using the Coomassie® Protein Assay Reagent from Pierce (Rockford, Ill.).
Polymerization of microtubule protein was monitored by an increase in turbidity at 37° C. in microtubule assembly buffer containing 100 mM MES, 0.5 mM MgCl2, 1 mM EGTA and 1 mM GTP. See Johnson, K. A. et al., J. Mol. Biol., (1977), 117, 1-31. Polymerization of purified tubulin was measured using the same method except the microtubule assembly buffer contained 4 M glycerol. See Lee, J. C. et al., Biochemistry, (1975), 14, 5183-87. Microtubule protein and tubulin polymerization was initiated by a temperature shift from 0° C. to 37° C. and turbidity was measured on a DU-20 thermocontrolled spectrophotometer from Beckman (Fullerton, Calif.) at 360 nm. Drugs were dissolved in dimethyl sulfoxide (DMSO), which was used in all experiments at a final concentration of 2% (v/v).
For this example, the microtubule protein polymerization assay was performed as follows. Microtubule protein was prepared from bovine brain tissue by two cycles of assembly and disassembly. Polymerization of microtubule protein was monitored by an increase in turbidity at 37° C. in microtubule assembly buffer containing 100 mM MES, 0.5 mM MgCl2, 1 mM EGTA and 1 mM GTP. The polymerization of microtubule protein was initiated by a temperature shift from 0° C. to 37° C. Turbidity was measured on a thermo-controlled spectrophotometer (Beckman DU-20, Fullerton, Calif.) at 360 nm. Compounds were dissolved in DMSO, which was used in all experiments at a final concentration of 2% (v/v).

P388 cells [12] = assay: Cell cycle progression of P388, flow cytometer; format: cell-based, murine; conditions: 1×10^−5 M, 8-hour incubation; 97.8% e.e.
Description: The effect of phenylahistin on the cell cycle progression of P388 cells was also investigated using a flow cytometer, as described in Krishan, A., J. Cell Biol. (1975) 66, 188-193. P388 cells in the log growth phase were seeded into flasks and cultured for 14 hours, and then various concentrations of phenylahistin were added to each flask. After an 8-hour incubation, the cells were harvested and fixed with 50% MeOH at −20° C. overnight. The cells were washed with 30% MeOH and then with 10 mM PBS, and treated with 50 :g/ml propidium iodide at 4° C. for 2 hours. DNA histograms were obtained using a flow cytometer (Cyto ACE-300:JASCO).

Compound: O=C1c2c(O)ccc(O)c2C(=O)c2c(NCCNCCO)ccc(NCCNCCO)c21 [Mitoxantrone, reference compound]
reduced susceptibility of the MES-SA DX cell line [1]: 20 fold
Ratio to Sensitive ([2]; HL-60 Resistant versus Sensitive): 24 and 24.1
IC50 ([2]; Homo sapiens, HL60/MX2, HL-60 Resistant): 4.87 µM
IC50 [3]: 202 nM
IC50 (Jurkat cells [4]): 41 nM
Cytotoxicity Efficacy % Cell Death (Jurkat cells [5]): 99%

IC50 [6]: 13.3 µg/mL (≈ 38 µM)
IC50 [7]: 2.9 µg/mL (≈ 8.28 µM)
IC50 (P388 cells [9]; Alamar Blue assay (Table 4), read-out: IC50 for P388 Proliferation): 10 µM
IC50 (P388 cells [9]; means (±SEM) of three experiments (Table 9), read-out: IC50 P388 proliferation): 10 µM
IC50 (Hela (ovary)): 10 µM
IC50 (MCF7 (breast)): 11 µM
IC50 (K562 (leukemia)): 10 µM
IC50 (A-431 (damal)): 20 µM
IC50 (A549 (lung)): 30 µM
IC50 ([11]; microtubule protein 1.5 mg/mL (Table 9), read-out: IC50 Microtubule Protein polymerization): > 200 µM
IC50 ([11]; microtubule protein 1.5 mg/ml (Table 4), read-out: IC50 for Microtubule Protein Polymerization): > 200 µM
Compound: C=CC(C)(C)c1[nH]cnc1/C=C1\NC(=O)[C@@H](Cc2ccccc2)NC1=O [(+)-phenylahistin]
fold less activity than (−)-PLH [8]: 33 to 100 fold
IC50 [10]: 38 µM
IC50 (TE-671 (CNS)): 130 µM
IC50 (WiDr (colon)): 8.5 µM
inhibition percentage at 200 μM, microtubule protein polymerization ([11]; 200 μM): 15%
microtubule assembly ([11]; concentrations up to 200 μM): did not affect microtubule assembly
cell cycle inhibitory activity (G2/M) (P388 cells [12]): no effect

Source: patent US20040102454A1, “Phenylahistin and the phenylahistin analogs, a new class of anti-tumor compounds” (priority 1998, published 2004)
